# Data taken from BigSolDB 2.1.
compound,measurement,setting,value
Nc1ccc(S(=O)(=O)Nc2ncccn2)cc1,solubility (mole fraction),"in acetone, 294.15 K",5.96e-05
same,solubility (mole fraction),"in acetone, 298.15 K",7.34e-05
same,solubility (mole fraction),"in acetone, 303.15 K",9.17e-05
same,solubility (mole fraction),"in acetone, 308.15 K",0.000106
same,solubility (mole fraction),"in acetone, 313.15 K",0.000115
same,solubility (mole fraction),"in acetone, 318.15 K",0.00012
same,solubility (mole fraction),"in chloroform, 294.15 K",5.47e-06
same,solubility (mole fraction),"in chloroform, 298.15 K",9.26e-06
same,solubility (mole fraction),"in chloroform, 303.15 K",1.54e-05
same,solubility (mole fraction),"in chloroform, 308.15 K",2.15e-05
same,solubility (mole fraction),"in chloroform, 313.15 K",2.57e-05
same,solubility (mole fraction),"in chloroform, 318.15 K",2.71e-05
same,solubility (mole fraction),"in ethanol, 294.15 K",3.8e-05
same,solubility (mole fraction),"in ethanol, 298.15 K",4.8e-05
same,solubility (mole fraction),"in ethanol, 303.15 K",6.01e-05
same,solubility (mole fraction),"in ethanol, 308.15 K",7e-05
same,solubility (mole fraction),"in ethanol, 313.15 K",7.56e-05
same,solubility (mole fraction),"in ethanol, 318.15 K",7.68e-05
same,solubility (mole fraction),"in isopropanol, 294.15 K",6.53e-05
same,solubility (mole fraction),"in isopropanol, 298.15 K",8.18e-05
same,solubility (mole fraction),"in isopropanol, 303.15 K",0.000103
same,solubility (mole fraction),"in isopropanol, 308.15 K",0.000123
same,solubility (mole fraction),"in isopropanol, 313.15 K",0.000134
same,solubility (mole fraction),"in isopropanol, 318.15 K",0.000143
same,solubility (mole fraction),"in methanol, 294.15 K",0.000265
same,solubility (mole fraction),"in methanol, 298.15 K",0.000283
same,solubility (mole fraction),"in methanol, 303.15 K",0.000311
same,solubility (mole fraction),"in methanol, 308.15 K",0.000343
same,solubility (mole fraction),"in methanol, 313.15 K",0.000377
same,solubility (mole fraction),"in methanol, 318.15 K",0.000409
same,solubility (mole fraction),"in n-propanol, 294.15 K",9.66e-05
same,solubility (mole fraction),"in n-propanol, 298.15 K",0.000124
same,solubility (mole fraction),"in n-propanol, 303.15 K",0.000164
same,solubility (mole fraction),"in n-propanol, 308.15 K",0.000208
same,solubility (mole fraction),"in n-propanol, 313.15 K",0.000245
same,solubility (mole fraction),"in n-propanol, 318.15 K",0.000279
